Reference: PMC10601989, “Charge and lipophilicity are required for effective block of the hair-cell mechano-electrical transducer channel by FM1-43 and its derivatives” (Frontiers in Cell and Developmental Biology, 2023)

test system: T1, hair-cell mechano-electrical transducer (MET) channel (native, mouse cochlear outer hair cells); experiment: whole-cell patch clamp of MET currents, fluid-jet bundle stimulation, fractional block; type: cell-based; details: -64 mV; extracellular superfusion, 1.3 mM Ca2+, pH 7.48, room temperature; permeant voltage-dependent block
T1 construct: gene Tmc1; native full-length MET complex in outer hair cells of P2 organotypic cochlear cultures kept 1-2 days in vitro; TMC1 and/or TMC2 pore with TMIE (subunits named only in the discussion; copy numbers from the C. elegans cryo-EM structure it cites); with Transmembrane inner ear expressed protein

Structure (SMILES) | % block at 10 μM
CCCCN(CCCC)c1ccc(/C=C/c2cc[n+](CCC[N+](CC)(CC)CC)cc2)cc1 [compound 13550, FM1-43] | ~ 30%
CCCCN(CCCC)c1ccc(/C=C/c2cc[n+](CCCC(=O)OCC)cc2)cc1 [compound 13551, 13551] | > 80%
CCCCN(CCCC)c1ccc(/C=C/c2cc[n+](CCCCC[N+](CC)(CC)CC)cc2)cc1 [compound 13667, 13667] | > 80%
CCCCN(CCCC)c1ccc(/C=C/c2cc[n+](CCCC[N+](CC)(CC)CC)cc2)cc1 [compound 13669, 13669] | > 80%
